# Measured values as given in patent US8158587B2, “Compound having histone deacetylase-inhibiting activity, and pharmaceutical composition comprising the compound as an active ingredient” (Kyushu Institute of Technology, priority 2006, dated 2012).
# pIC50: −log10 of the molar value. Where two headings read alike, the source gives them in different places. Non-standard residues stand in square brackets, D forms with d. Residues, ends and D or L forms follow the SMILES beside them. Ala(5-hexenyl) = C=CCCCCC[C@H](N)C(=O)O; Aib = CC(C)(N)C(=O)O
# Columns and labels:
# human HDAC1 = target: T1, human HDAC1 (Homo sapiens, UniProt Q13547); experiment: HDAC-inhibiting activity, coumarin-labeled acetylated histone peptide assay; type: biochemical; details: human HDAC1 from transfected 293T cells; 37° C., 30 minutes
# T1 construct: made in house; host or cells: 293T cells (transient transfection, anti-FLAG immunoprecipitation, FLAG peptide elution)
# T1 sequence (Q13547 whole entry): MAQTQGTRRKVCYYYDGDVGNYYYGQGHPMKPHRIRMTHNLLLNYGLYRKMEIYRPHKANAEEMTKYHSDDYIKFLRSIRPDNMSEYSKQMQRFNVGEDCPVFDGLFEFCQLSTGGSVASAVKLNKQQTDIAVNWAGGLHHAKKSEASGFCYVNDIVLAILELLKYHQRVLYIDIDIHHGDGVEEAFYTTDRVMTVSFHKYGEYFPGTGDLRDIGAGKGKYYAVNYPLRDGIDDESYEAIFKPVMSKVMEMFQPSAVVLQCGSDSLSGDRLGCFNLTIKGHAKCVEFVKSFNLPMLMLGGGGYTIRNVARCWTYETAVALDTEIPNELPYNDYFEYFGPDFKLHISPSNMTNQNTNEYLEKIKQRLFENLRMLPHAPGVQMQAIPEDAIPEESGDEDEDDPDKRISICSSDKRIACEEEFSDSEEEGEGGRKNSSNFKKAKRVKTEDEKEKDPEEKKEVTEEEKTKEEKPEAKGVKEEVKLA
# Experimental: (§1) In carrying out HDAC-inhibiting activity measurements, HDAC solutions were prepared in the following manner. In each 100-mm dish, there were sowed 1×10^7 293T cells and, after 24 hours, they were transfected with a vector (5 μg) expressing human HDAC1 or HDAC4 or murine HDAC6 using the LipofectAmine 2000 reagent (Invitrogen). The human HDAC1 expression vector used was pcDNA3-HD1 (Yang, W. M., Yao, Y. L., Sun, J. M., Davie, J. R. & Seto, E. (1997) J. Biol. Chem. 272, 28001-28007), the human HDAC4 expression vector used was pcDNA3-HD4 (Fischle, W., Emiliani, S., Hendzel, M. J., Nagase, T., Nomura, N., Voelter, W. & Verdin, E. (1999) J. Biol. Chem. 274, 11713-11720), and the murine HDAC6 expression vector used was pcDNA3-mHDA2/HDAC6 (Verdel, A. & Khochbin, S. (1999) J. Biol. Chem. 274, 2440-2445).
# (§2) After 24 hours of incubation, cells were recovered, washed with PBS, suspended in lysis buffer (50 mM Tris-HCl (pH 7.5), 120 mM NaCl, 5 mM EDTA, 0.5% Nonidet P-40), and sonicated. The supernatant was collected by centrifugation and then deprived of nonspecific proteins using Protein A/G plus agarose beads (Santa Cruz Biotechnologies, Inc.). Thereafter, anti-FLAG M2 antibody (Sigma-Aldrich Inc.) was added, and the reaction was allowed to proceed at 4° C. for 2 hours.
# (§3) To this were added agarose beads, the reaction was allowed to proceed at 4° C. for 3 hours, and the agarose beads were washed three times with lysis buffer and then once with HD buffer (20 mM Tris-HCl (pH 8.0), 150 mM NaCl, 10% glycerol). The protein bound to the agarose beads was recovered by 1 hour of incubation with FLAG peptide (40 μg) (Sigma-Aldrich Inc.) in HD buffer (200 μl) at 4° C., and the liquid recovered was used, as a reactant solution, in the HDAC-inhibiting activity measurement described below.
# (§4) HDAC-inhibiting activity evaluation in each in vitro system was made as follows. Each test compound was dissolved in DMSO, a stock solution with a concentration of 10 mM was thus prepared and this was used as an inhibitor stock solution. The assay was carried out by incubating the HDAC solution and a coumarin-labeled acetylated histone peptide solution in the presence of the test compound at 37° C. for 30 minutes (reaction volume 20 μl). To the reaction mixture was added 30 μl of trypsin, and the aminomethylcoumarin released by the enzymatic reaction was assayed using a fluorescent plate reader. In a negative control assay, no inhibitor was added to the reaction system and the same procedure was carried out.
# murine HDAC6 = target: T2, murine HDAC6 (Mus musculus, UniProt Q9Z2V5); experiment: as above; type: biochemical; details: murine HDAC6 from transfected 293T cells; 37° C., 30 minutes
# T2 construct: made in house; host or cells: 293T cells (transient transfection, anti-FLAG immunoprecipitation, FLAG peptide elution)
# T2 sequence (Q9Z2V5 1-1149): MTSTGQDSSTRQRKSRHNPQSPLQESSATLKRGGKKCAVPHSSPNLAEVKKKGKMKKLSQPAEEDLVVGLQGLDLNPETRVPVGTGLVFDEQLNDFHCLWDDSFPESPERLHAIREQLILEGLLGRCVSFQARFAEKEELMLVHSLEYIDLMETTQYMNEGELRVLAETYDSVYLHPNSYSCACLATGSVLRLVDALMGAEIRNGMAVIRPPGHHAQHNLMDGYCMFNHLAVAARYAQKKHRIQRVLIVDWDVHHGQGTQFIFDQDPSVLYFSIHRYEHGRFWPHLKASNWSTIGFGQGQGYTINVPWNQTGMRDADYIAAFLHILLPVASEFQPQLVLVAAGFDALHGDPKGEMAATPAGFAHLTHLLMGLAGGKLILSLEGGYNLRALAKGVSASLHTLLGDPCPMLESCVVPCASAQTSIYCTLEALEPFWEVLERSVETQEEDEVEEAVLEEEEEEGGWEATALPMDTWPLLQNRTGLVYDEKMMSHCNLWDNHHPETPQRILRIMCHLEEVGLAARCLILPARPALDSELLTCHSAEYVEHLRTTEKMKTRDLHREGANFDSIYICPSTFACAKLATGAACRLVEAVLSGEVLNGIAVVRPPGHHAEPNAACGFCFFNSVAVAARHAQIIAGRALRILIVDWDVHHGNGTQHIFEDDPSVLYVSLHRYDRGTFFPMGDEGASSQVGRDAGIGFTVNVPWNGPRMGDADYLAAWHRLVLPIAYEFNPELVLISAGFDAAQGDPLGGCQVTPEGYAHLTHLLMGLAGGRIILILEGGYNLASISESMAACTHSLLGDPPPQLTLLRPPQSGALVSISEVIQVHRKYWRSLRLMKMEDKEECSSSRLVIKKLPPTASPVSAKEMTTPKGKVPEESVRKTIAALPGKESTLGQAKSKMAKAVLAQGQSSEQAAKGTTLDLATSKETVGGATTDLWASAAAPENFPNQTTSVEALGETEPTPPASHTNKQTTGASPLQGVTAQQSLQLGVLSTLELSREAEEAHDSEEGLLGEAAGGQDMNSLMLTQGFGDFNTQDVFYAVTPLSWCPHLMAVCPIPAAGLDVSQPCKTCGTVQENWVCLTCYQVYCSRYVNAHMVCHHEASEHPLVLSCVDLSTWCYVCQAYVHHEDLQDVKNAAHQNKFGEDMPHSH
# Experimental: as §1, §2, §3, §4
# human HDAC4 = target: T3, human HDAC4 (Homo sapiens, UniProt P56524); experiment: as above; type: biochemical
# T3 construct: made in house; host or cells: 293T cells (transient transfection, anti-FLAG immunoprecipitation, FLAG peptide elution)
# T3 sequence (P56524 whole entry): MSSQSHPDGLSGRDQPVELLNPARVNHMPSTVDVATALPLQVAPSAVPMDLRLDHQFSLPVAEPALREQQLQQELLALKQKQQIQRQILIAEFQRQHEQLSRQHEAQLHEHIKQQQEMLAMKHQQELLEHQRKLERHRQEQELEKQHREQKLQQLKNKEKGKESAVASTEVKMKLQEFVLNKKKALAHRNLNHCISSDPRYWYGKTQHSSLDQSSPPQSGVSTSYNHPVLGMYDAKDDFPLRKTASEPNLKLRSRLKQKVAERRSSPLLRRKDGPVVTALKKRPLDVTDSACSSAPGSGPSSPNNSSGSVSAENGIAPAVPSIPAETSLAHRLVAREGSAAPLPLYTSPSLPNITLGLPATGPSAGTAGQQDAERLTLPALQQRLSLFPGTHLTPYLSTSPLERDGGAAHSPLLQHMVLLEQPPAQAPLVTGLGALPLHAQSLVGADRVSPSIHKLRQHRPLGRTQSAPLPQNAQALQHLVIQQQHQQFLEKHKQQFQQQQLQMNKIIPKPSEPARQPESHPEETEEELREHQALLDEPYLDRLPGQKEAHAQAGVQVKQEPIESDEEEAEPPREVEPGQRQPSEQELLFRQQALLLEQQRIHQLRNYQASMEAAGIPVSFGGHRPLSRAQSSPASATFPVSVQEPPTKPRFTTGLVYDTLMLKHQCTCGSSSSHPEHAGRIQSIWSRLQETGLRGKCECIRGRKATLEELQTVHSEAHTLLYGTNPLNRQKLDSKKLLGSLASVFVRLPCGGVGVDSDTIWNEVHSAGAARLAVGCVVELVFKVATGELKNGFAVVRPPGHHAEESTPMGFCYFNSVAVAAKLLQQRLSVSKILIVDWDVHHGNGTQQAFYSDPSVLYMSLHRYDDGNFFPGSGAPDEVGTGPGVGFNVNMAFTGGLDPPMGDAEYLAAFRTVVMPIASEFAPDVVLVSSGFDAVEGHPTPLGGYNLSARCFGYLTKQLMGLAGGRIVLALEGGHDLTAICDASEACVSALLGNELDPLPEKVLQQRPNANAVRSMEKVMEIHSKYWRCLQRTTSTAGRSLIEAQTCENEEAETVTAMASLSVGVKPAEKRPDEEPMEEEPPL
# T3 sequence (O15379 whole entry, further chain): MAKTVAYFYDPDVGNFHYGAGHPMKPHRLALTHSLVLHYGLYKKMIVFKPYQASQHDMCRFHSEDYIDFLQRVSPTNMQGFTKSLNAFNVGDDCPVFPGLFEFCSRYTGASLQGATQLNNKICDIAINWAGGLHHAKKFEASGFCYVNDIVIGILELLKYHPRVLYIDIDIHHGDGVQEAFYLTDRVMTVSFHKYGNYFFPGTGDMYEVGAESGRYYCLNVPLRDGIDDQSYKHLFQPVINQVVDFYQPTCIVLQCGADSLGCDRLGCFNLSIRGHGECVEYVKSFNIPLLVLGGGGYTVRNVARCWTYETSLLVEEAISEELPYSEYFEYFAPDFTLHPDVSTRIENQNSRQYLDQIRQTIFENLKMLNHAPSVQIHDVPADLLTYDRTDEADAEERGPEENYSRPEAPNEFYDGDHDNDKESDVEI
# Experimental: In carrying out HDAC-inhibiting activity measurements, HDAC solutions were prepared in the following manner. […] The human HDAC1 expression vector used was pcDNA3-HD1 (Yang, W. M., Yao, Y. L., Sun, […]. & Seto, E. (1997) J. Biol. Chem. 272, 28001-28007), the human HDAC4 expression vector used was pcDNA3-HD4 ([…]., Nagase, […]. Biol. Chem. 274, 11713-11720), and the murine HDAC6 expression vector used was pcDNA3-mHDA2/HDAC6 ([…]. Biol. Chem. 274, 2440-2445). After 24 hours of incubation, cells were recovered, washed with PBS, suspended in lysis buffer (50 mM Tris-HCl (pH 7.5), 120 mM NaCl, 5 mM EDTA, 0.5% Nonidet P-40), and sonicated. The supernatant was collected by centrifugation and then deprived of nonspecific proteins using Protein A/G plus agarose beads (Santa Cruz Biotechnologies, Inc.). Thereafter, anti-FLAG M2 antibody (Sigma-Aldrich Inc.) was added, and the reaction was allowed to proceed at 4° C. for 2 hours. To this were added agarose beads, the reaction was allowed to proceed at 4° C. for 3 hours, and the agarose beads were washed three times with lysis buffer and then once with HD buffer (20 mM Tris-HCl (pH 8.0), 150 mM NaCl, 10% glycerol). […] HDAC-inhibiting activity evaluation in each in vitro system was made as follows. Each test compound was dissolved in DMSO, a stock solution with a concentration of 10 mM was thus prepared and this was used as an inhibitor stock solution. The assay was carried out by incubating the HDAC solution and a coumarin-labeled acetylated histone peptide solution in the presence of the test compound at 37° C. for 30 minutes (reaction volume 20 μl). To the reaction mixture was added 30 μl of trypsin, and the aminomethylcoumarin released by the enzymatic reaction was assayed using a fluorescent plate reader. In a negative control assay, no inhibitor was added to the reaction system and the same procedure was carried out.
# [1] = tested on: human wild type p21 promoter; experiment: p21 promoter assay (luciferase) in MFLL-9 cells; type: cell-based; details: 20 hours, concentration giving 1000% luminescence relative to negative control (100%)
# Experimental: As an HDAC-inhibiting activity in an […] system, the following measurement was carried out using the p21 promoter inducing activity as an index. MFLL-9 cells used in the experiment are cells stably retaining a fusion gene (Dr. B. Vogelstaein) from the human wild type p21 promoter and luciferase gene. They were cultured using phenol red-free DMEM supplemented with 10% FBS in a steam-saturated incubator at 37° C. in the presence of 5% carbon dioxide. These MFLL-9 cells were sowed onto a 96-well microplate at a cell density of 2×10^4 cells/well and, after 24 hours of cultivation in 99 μl, per well, of the medium mentioned above, each test compound solution was added, followed by 20 hours of incubation. […] In a negative control, the same procedure was carried out without adding any inhibitor to the reaction system.
# Using Luciferase Assay Reagent (Promega), the intensity of the luminescence due to the product of the enzymatic reaction involving luciferase expressed within cells was measured.
# [2] = human HDAC4 from transfected 293T cells, 37° C., 30 minutes, read-out: HDAC-inhibiting activity IC50 HDAC4
pIC50 (human HDAC1),pIC50 (murine HDAC6),pIC50 (human HDAC4; [2]),pIC50 (human HDAC4),Compound,p21 promoter activity EC1000 [1] [µM]
7.96,6.92,8.19,–,"CC1(C)NC(=O)[C@H](CCCCCSCc2ccccc2)NC(=O)[C@H]2CCCN2C(=O)[C@H](Cc2ccccc2)NC1=O [Ky-69, cyclo(-L-Am7(benzyl)-Aib-L-Phe-D-Pro-)]",0.041
< 4.00,< 4.00,–,< 4.00,"C=CCCCCC[C@@H]1NC(=O)[C@H]2CCCN2C(=O)[C@H](Cc2ccccc2)NC(=O)C(C)(C)NC1=O [Ky-17, cyclo(-L-Ae9-Aib-L-Phe-D-Pro-)] (cyclo([Aib]F[dP][Ala(5-hexenyl)]))",>250
7.68,5.08,7.51,–,"CCOCC(=O)CCCCC[C@@H]1NC(=O)[C@H]2CCCN2C(=O)[C@H](Cc2ccccc2)NC(=O)C(C)(C)NC1=O [Ky-10, cyclo(-L-Ae9(Emk)-Aib-L-Phe-D-Pro-)]",0.095
6.96,5.37,6.72,–,"CC(=O)SCC(=O)CCCCC[C@@H]1NC(=O)[C@H]2CCCN2C(=O)[C@H](Cc2ccccc2)NC(=O)C(C)(C)NC1=O [Ky-18, cyclo(-L-Ae9(Actmk)-Aib-L-Phe-D-Pro-)]",0.013
–,–,–,–,"CC1(C)NC(=O)C(CCCCC[S+]([O-])Cc2ccccn2)NC(=O)[C@H]2CCCN2C(=O)[C@H](Cc2ccccc2)NC1=O (stereo partly drawn) [Ky-25, cyclo(-L-Am7(2-pyridylmethyl,sulfoxide)-Aib-L-Phe-D-Pro-)]",1.4
< 4.00,< 4.00,< 4.00,–,"CC1(C)NC(=O)[C@H](CCCCC[S+]([O-])CC(=O)C(F)(F)F)NC(=O)[C@H]2CCCN2C(=O)[C@H](Cc2ccccc2)NC1=O (stereo partly drawn) [Ky-71, cyclo(-L-Am7(1,1,1-trifluoroacetonyl, sulfoxide)-Aib-L-Phe-D-Pro-)]",3.4
6.40,5.43,6.48,–,"CC1(C)NC(=O)[C@H](CCCCCSCc2cccnc2)NC(=O)[C@H]2CCCN2C(=O)[C@H](Cc2ccccc2)NC1=O [Ky-68, cyclo(-L-Am7(3-pyridylmethyl)-Aib-L-Phe-D-Pro-)]",0.20
–,–,–,–,"CC(=O)C[S+]([O-])CCCCCC1NC(=O)[C@H]2CCCN2C(=O)[C@H](Cc2ccccc2)NC(=O)C(C)(C)NC1=O (stereo partly drawn) [Ky-86, cyclo(-L-Am7(acetonyl,sulfoxide)-Aib-L-Phe-D-Pro-)]",16.8
< 4.00,< 4.00,< 4.00,–,"CC1(C)NC(=O)[C@H](CCCSCC(=O)C(F)(F)F)NC(=O)[C@H]2CCCN2C(=O)[C@H](Cc2ccccc2)NC1=O [Ky-27, cyclo(-L-Am5(1,1,1-trifluoroacetonyl)-Aib-L-Phe-D-Pro-)]",>250
7.64,7.24,7.96,–,"CC1(C)NC(=O)[C@H](CCCCCSCc2ccccn2)NC(=O)[C@H]2CCCN2C(=O)[C@H](Cc2ccccc2)NC1=O [Ky-16, cyclo(-L-Am7(2-pyridylmethylthio ether)-Aib-L-Phe-D-Pro-)]",0.20
< 4.00,< 4.00,< 4.00,–,"CSCCCCC[C@@H]1NC(=O)[C@H]2CCCN2C(=O)[C@H](Cc2ccccc2)NC(=O)C(C)(C)NC1=O [Ky-15, cyclo(-L-Am7(methyl)-Aib-L-Phe-D-Pro-)]",–
4.08,< 4.00,4.74,–,"CC1(C)NC(=O)[C@H](CCCCSCC(=O)C(F)(F)F)NC(=O)[C@H]2CCCN2C(=O)[C@H](Cc2ccccc2)NC1=O [Ky-28, cyclo(-L-Am6(1,1,1-trifluoroacetonyl)-Aib-L-Phe-D-Pro-)]",6.5
–,–,6.44,–,"CC1(C)NC(=O)[C@H](CCCCCSCC(=O)C(F)(F)F)NC(=O)[C@H]2CCCN2C(=O)[C@H](Cc2ccccc2)NC1=O [Ky-29, cyclo(-L-Am7(1,1,1-trifluoroacetonyl)-Aib-L-Phe-D-Pro-)]",0.028

Compound,pIC50 (human HDAC1),pIC50 (murine HDAC6),pIC50 (human HDAC4; [2]),pIC50 (human HDAC4),p21 promoter activity EC1000 [1] [µM]
"CC1(C)NC(=O)[C@H](CCCCCC(=O)CBr)NC(=O)[C@H]2CCCN2C(=O)[C@H](Cc2ccccc2)NC1=O [Ky-12, cyclo(-L-Ae9(Bmk)-Aib-L-Phe-D-Pro-)]",7.21,6.21,7.22,–,0.34
